The values that follow come from patent US20040265323A1, “Compositions comprising pathogen elicited epithelial chemoattractant (eicosanoid hepoxilin A3), inhibitors thereof and methods of use thereof” (priority 2003, published 2004).

The structures appear in SMILES notation. Several values for one entry are separate records, joined by “and”; a condition that tells them apart may be missing. Identical values can stand only once. Entries after “also recorded” stand apart in the source; their conditions may differ.

Series [1] can be described thus: Stability in acidified acetonitrile. The series is classed as physicochemical. The conditions noted are these: overnight incubation in acid. The method, then:
Molecules of the 5-LO, 8-LO, 12-LO and 15-LO pathways of arachadonic metabolism were analyzed by LC/MS breakdown patterns and compared to PEEC. […] Methylation of PEEC samples and hepoxilin A3 also provided similar ion spectra (data not shown). […] PEEC activity was also observed to have other chemical properties similar to hepoxilin A3, such as being labile in the presence of acetonitrile/0.1% trifluoroacetic acid (FIG. 3D).

Series [2] deals with PMN. The series is described as follows: PMN degranulation assessed by elastase release. The series is classed as cell-based, human. From the text: (§1) To substantiate the notion that hepoxilin A3 was in fact the molecule responsible for PEEC bioactivity, it was examined whether synthetic hepoxilin A3 (BIOMOL, Plymouth Meeting, Pa.) could recapitulate PEEC bioactivity. […] Thus, authentic hepoxilin A3 recapitulates all known aspects of PEEC bioactivity consistent with the notion that hepoxilin A3 is in fact PEEC's active component.

The subject of series [3] is P. aeruginosa-induced PMN transepithelial migration, A549 cells. Nature of the series: P. aeruginosa-induced PMN transepithelial migration across A549 cell monolayers. The series is classed as cell-based, human. As to conditions: excess hepoxilin A3 added to basolateral compartment; data not shown. From the text:
It was further determined whether similar hepoxilin A3 recruitment of PMN by apically attached pathogens might occur at other mucosal surfaces. Pseudomonas aeruginosa is the most prominent bacterial spp. present during chronic infection in cystic fibrosis and chronic obstructive pulmonary disease patients and is accompanied by severe inflammation, including the emigration of PMN to the airway lumen (Pizurki et al., 2000; Jahn et al., 2000; Weiss, S. 1989). As a model for the airway epithelium the A549 cell line was used. This cell line is capable of forming a polarized barrier, and is widely employed as a model for the airway epithelial surface (Smart and Casale, 1994). […] Finally, the secretion of hepoxlin A3 in vitro was quantified using this A549 model system. For these experiments, A549 lung epithelial cells (ATTC) were grown in F12K media (Invitrogen) with 10% FBS, and maintained in culture similar to the T84 cell line. The wild type P. aeruginosa (PAO1) was used for infection of A549 after overnight aerobic growth (Luria broth) at 37° C.

The test system of series [4] is T84 monolayers. The series is described as follows: Hepoxilin A3 degradation in apical and basolateral compartments of T84 monolayers. The conditions noted are these: for time to 50% loss of intact compound (T1/2), average: average of two experiments. The series is classed as in vitro ADME, human. The method, then:
(§2) First, any potential gradient by adding excess synthetic hepoxilin A3 to the basolateral compartment was counteracted. […] The establishment of a hepoxilin A3 gradient was next measured quantitatively. […] Hepoxilin A3 decay in both compartments was exponential and the above stated T1/2 values were determined by analyzing the slope of a best-fit line to a log-linear analysis of each data set. Because of the complex degradation events occurring in both the apical and basolateral compartments, no attempt was made to calculate a transport rate. Instead, the extent of recovery of hepoxilin A3 from the basolateral compartment following an apical application of 4500 pmoles was measured.

For series [5], the system named is PMN transmigration across T84 cell monolayers. Nature of the series: PMN transepithelial migration to imposed gradients of lipids across T84 monolayers. The series is classed as cell-based, human. As to conditions: for PMN transepithelial migration (PEEC activity) induced by added lipid: imposed gradients across T84 cell monolayers, basolateral-to-apical. As for the experimental part: Crude preparations of PEEC were collected from the apical surface of polarized T84 cell monolayers following infection with S. typhimurium SL1344 as previously described (McCormick et al., 1998). For these experiments, T84 intestinal epithelial cells (passages 45 to 65) were grown in a 1:1 mixture of Dulbecco-Vogt modified Eagles medium and Ham's F-12 medium supplemented with 15 mM Hepes buffer (pH 7.5), 14 mM NaHCO3, 40 mg/liter penicillin, 8 mg/liter ampicillin, 90 mg/liter streptomycin and 5% newborn calf serum. Polarized monolayers of T84 cells were formed and maintained on 0.33 cm^2 ring-supported collagen-coated polycarbonate filters (Costar Corp., Cambridge, Mass.) as previously described (Madara et al., 1992) with recently detailed modifications (Dharmsathaphorn and Madara, 1990). T84 cell monolayers reached a steady-state resistance 4 to 6 days after plating with some variability largely related to cell passage number. Cell culture inserts of inverted monolayers, used to study transmigration of PMN in the physiological basolateral-to-apical direction, were constructed as previously described (Madara et al., 1992; Dharmsathaphorn and Madara, 1990; Nash et al., 1991).
(§3) It was further examined if hepoxilin A3 acts in a gradient fashion to drive PMN migration from the basolateral to the apical epithelial surface. For these experiments, the physiologically directed (basolateral-to-apical) PMN transepithelial migration assay using cell culture inserts of inverted T84 monolayers has been used (McCormick et al., 1993; Parkos et al., 1992). Human PMN were isolated from normal volunteers, as described elsewhere (Parkos et al., 1992; Henson and Oades, 1975). PMN transmigration results were represented as PMN cell equivalents (CE) derived from a daily standard PMN dilution curve. PMN which completely traversed the monolayer were represented as the number of PMN (CE/ml in a total volume of 1 ml). Values were expressed as the mean and SD of an individual experiment done in triplicate repeated at least 3 times.
Arachidonic acid is the initial substrate used by a variety of metabolic pathways involving lipoxygenase (LO) activities—enzymes that add hydroxyl groups at specific carbon atoms of this 20-carbon fatty acid. […] Therefore, in addition to hepoxilin A3, a wide range of arachidonic acid metabolites for their ability to incite the transmigration of PMNs across T84 monolayers in vitro was examined (Table 1). […] This is consistent with previous reports that LTB4 is capable of inducing PMN transmigration.

The test system of series [6] is PMN. The series is described as follows: PMN intracellular Ca2+ mobilization. The series is classed as cell-based, human.
From the text: Further, crude PEEC preparations were collected from postinfected T84 cells monolayers. Samples were first passed through an Amicon ultra-filtration apparatus (Millipore Corp.; Bedford, Mass.) fitted with a 2,000 Da cut-off membrane. Filtrate components were bound to a Backerbond spe™ octadecyl extraction column (J. T. Baker; Philipsburg, N.J.) that was subsequently eluted with water, hexane, and finally methanol. The methanol fraction was dried under vacuum and resuspended in 50:50 (vol:vol) methanol:2 mM Tris HCl (pH 7.5) and injected onto a Vydac C18 (10 μm; 300 Å) semi-preparative column ([…]) equilibrated with 2 mM Tris-HCl (pH 7.5). A methanol gradient of 1-10% over 10 minutes, then 10-60% over 25 minutes, followed by 60-100% over 45 minutes (all at room temperature) was used to isolate active PEEC fractions. Active fractions, having no detectable absorbance at 280 nm and weak absorbance at 214 nm, were analyzed using a Genesis C18 (4 μm, 120 Å) analytical HPLC column (4.6×150 mm) equilibrated with 5 mM triethylamine/acetic acid (pH 7.2). […] (FIG. 2A and B).
as §1

For series [7], the system named is PMN transmigration across T84 cell monolayers. Nature of the series: Disruption of hepoxilin A3 gradient by basolateral addition, PMN transepithelial migration across T84 monolayers. The series is classed as cell-based, human. The conditions noted are these: 5 μg/ml basolateral; migration induced by S. typhimurium, recombinant SipA or imposed gradients of hepoxilin A3.
From the text: as §3
First, any potential gradient by adding excess synthetic hepoxilin A3 to the basolateral compartment was counteracted. […] The establishment of a hepoxilin A3 gradient was next measured quantitatively. […] Hepoxilin A3 decay in both compartments was exponential and the above stated T1/2 values were determined by analyzing the slope of a best-fit line to a log-linear analysis of each data set. […] Instead, the extent of recovery of hepoxilin A3 from the basolateral compartment following an apical application of 4500 pmoles was measured.

In series [8] the test system is T84 monolayers. The series is described as follows: Recovery of hepoxilin A3 in basolateral compartment after apical application to T84 monolayers. The series is classed as in vitro ADME, human. The conditions noted are these: apical application of 4500 pmoles, over 90 minutes. The method, then:
as §2

In the case of `CCCCC/C=C\C[C@@H]1O[C@H]1/C=C/C(O)C/C=C\CCCC(=O)O` (some centres unmarked) [hepoxilin A3], the “stability in acetonitrile/0.1% trifluoroacetic acid” value in series [1] was “labile”. The PMN degranulation result in the series with PMN [2] is recorded as “did not induce PMN degranulation; also recorded: not observed”. Moreover, the “P. aeruginosa-induced PMN transepithelial migration with gradient disruption” value in series [3] is reported as “inhibited”. For the same compound, the “time to 50% loss of intact compound (T1/2), single experiments” value in the series on T84 monolayers [4] (apical chamber) was 1.28 h and 1.45 h; in the series on T84 monolayers [4] (basolateral compartment) it was 0.817 h and 0.625 h. The “time to 50% loss of intact compound (T1/2), average” value in the series with T84 monolayers [4] (apical chamber of T84 monolayers) is 1.37 h; with T84 monolayers [4] (basolateral compartment of T84 monolayers), 0.717 h. Further, the “PMN transepithelial migration induced by imposed gradients” value in series [5] (hepoxilin A3 0.5-5 μg/ml, FIG. 4A) is listed as “induce PMN transepithelial migration in a dose dependent fashion”. The figures for the “PMN transepithelial migration (PEEC activity) induced by added lipid” value in series [5] and in series [5] (listed as Hepoxilin A3) were “induced transepithelial migration” and “saturated response”, respectively. Further, the “PMN intracellular Ca2+ mobilization” value with PMN [6] was “elicited an increase in [Ca^2+] in PMN”. Moreover, the “intracellular Ca2+ in PMN” value in the series on PMN [6] (5 μg/ml, FIG. 4B) is “increase in intracellular Ca^2+”. Also, in series [7], the “effect of basolateral addition on PMN transepithelial migration” value was “significantly diminished PMN transepithelial migration”. In the series on T84 monolayers [8], the “amount of intact compound recovered from the basolateral compartment” value was “low but detectable amount and low”.
